Laboratory results taken from patent publication US10544112B2, “Identification of ebsulfur analogues with broad-spectrum antifungal activity” (priority 2017, dated 2020).
In brackets after ≈: the same amount, converted by molar mass.

Experiments:
[1] = system: C. albicans ATCC 64124 (strain B); assay: microbe, parasite or virus in culture; assay type: cell-based, Candida albicans; details: strain B; compounds 1-4n and AmB; 48 h, RPMI 1640
In short: (§1)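 CLSI M27-A3 microdilution, modified; RPMI 1640/0.165 M MOPS pH 7.0; final drug 12.5-0.02 μg/mL (2-fold series), inoculum 5×10^3 CFU/mL; 48 h, 35° C. Aspergillus: spores from 3-5 day PDA cultures at 25° C, tested likewise.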

[2] = system: C. albicans ATCC 90819(R) (strain D); assay: microbe, parasite or virus in culture; assay type: cell-based, Candida albicans; details: strain D; compounds 1-4n and AmB; 48 h, RPMI 1640
In short: as §1

[3] = system: C. albicans ATCC MYA-1003(R) (strain G); assay: microbe, parasite or virus in culture; assay type: cell-based, Candida albicans; details: strain G; compounds 1-4n and AmB; 48 h, RPMI 1640
In short: as §1

[4] = system: C. albicans ATCC MYA-1237(R) (strain F); assay: microbe, parasite or virus in culture; assay type: cell-based, Candida albicans; details: strain F; compounds 1-4n and AmB; 48 h, RPMI 1640
In short: as §1

[5] = system: C. albicans ATCC MYA-2310(S) (strain E); assay: Antifungal MIC determination (CLSI M27-A3, 96-well); assay type: cell-based, Candida albicans; details: strain E; compounds 1-4n and AmB; 48 h, RPMI 1640
In short: as §1

[6] = system: C. albicans ATCC MYA-2876(S) (strain C); assay: as above; assay type: cell-based, Candida albicans; details: strain C; compounds 1-4n and AmB; 48 h, RPMI 1640
In short: as §1

[7] = system: Candida albicans ATCC 10231 (strain A); assay: as above; assay type: cell-based; details: strain A; compounds 1-4n and AmB; 48 h, RPMI 1640
In short: as §1

[8] = system: Candida glabrata ATCC 2001 (strain H); assay: as above; assay type: cell-based; details: strain H; compounds 1-4n and AmB; 48 h, RPMI 1640
In short: as §1

[9] = system: Candida parapsilosis ATCC 22019 (strain J); assay: as above; assay type: cell-based; details: strain J; compounds 1-4n and AmB; 48 h, RPMI 1640
In short: as §1

[10] = system: Aspergillus flavus ATCC MYA-3631 (strain K); assay: Antifungal MIC determination, filamentous fungi spores; assay type: cell-based; details: all compounds
In short: (§2)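 A modified CLSI M27-A3 protocol is used, with final compound levels from 12.5 to 0.02 μg/mL in two-fold steps. Cells are incubated at 5×10^3 CFU/mL in buffered RPMI 1640 at 35° C for 48 h.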

[11] = system: Aspergillus nidulans ATCC 38163 (strain L); assay: as above; assay type: cell-based; details: strain L; spores
In short: as §2

[12] = system: Aspergillus terreus ATCC MYA-3633 (strain M); assay: as above; assay type: cell-based; details: strain M; all compounds; spores
In short: as §2

Candida strains (A-J) = assay: Antifungal MIC, summary over panel of Candida strains; assay type: cell-based
Experimental: Fungal MIC determination experiments were performed using untreated 96-well plates (Corning). Cells were counted either by using a hemocytometer (Hausser Scientific, Horsham, Pa., USA) or by measuring optical density at attenuance of 600 nm (OD600) by using a Genesys 20 spectrophotometer (Thermo Scientific, Waltham, Mass., USA). Spectrophotometric and colorimetric measurements in 96-well plates were performed using a SpectraMax M5 spectrometer (Molecular Devices, Sunnyvale, Calif., USA).
Yeast strains Candida albicans ATCC 10231 (strain A), C. albicans ATCC 64124 (strain B), and C. albicans ATCC MYA-2876(S) (strain C) were kindly provided by Dr. Jon Y. Takemoto (Utah State University, Logan, UT, USA). C. albicans ATCC MYA-90819(R) (strain D), C. albicans ATCC MYA-2310(S) (strain E), C. albicans ATCC 1237(R) (strain F), C. albicans ATCC MYA-1003(R) (strain G), Candida glabrata ATCC 2001 (strain H), Candida krusei ATCC 6258 (strain I), and Candida parapsilosis ATCC 22019 (strain J) were obtained from the American Type Culture Collection (ATCC, Manassas, Va., USA). The (S) and (R) indicate that ATCC reports these strains to be susceptible (S) and resistant (R) to ITC and FLC. The filamentous fungal strains Aspergillus flavus ATCC MYA-3631 (strain K), and Aspergillus terreus ATCC MYA-3633 (strain M) were also obtained from the American Type Culture Collection (ATCC, Manassas, Va., USA). Aspergillus nidulans ATCC 38163 (strain L) was kindly provided by Dr. Jon S. Thorson (University of Kentucky, Lexington, Ky., USA), respectively. Yeast strains were cultured at 35° C. Filamentous fungal strains were cultured at 25° C. and the spores were harvested. All fungal strains were cultured in RPMI 1640 medium (catalog # R6504, Sigma-Aldrich Chemical Co., St. Louis, Mo.) buffered to pH 7.0 with 0.165 M morpholinepropanesulfonic acid (MOPS) buffer (Sigma-Aldrich Chemical Co.).
The MIC values against fungal strains were determined based on a previously published protocol. MIC values for ebsulfur (2a) analogues against fungal cells were evaluated in 96-well plates as described in the CLSI document M27-A3 with minor modifications. […] Therefore, potato dextrose broth (PDB) was used to grow the yeast inocula of all strains tested, which were later diluted in RPMI 1640 medium to perform determination of MIC values. […] The tested compounds (10 mg/mL) were diluted to the working stocks (500 μg/mL) by addition of DMSO. Two-fold serial dilution of the working stocks was prepared by addition of RPMI 1640 medium (100 μL) and cell suspension (100 μL) to 96-well microtiter plate to achieve final drug and inoculum concentrations ranging from 12.5-0.02 μg/mL and 5×10^3 CFU/mL, respectively. Plates were incubated for 48 h at 35° C. […]

SMILES	MIC-0 [1]	MIC-0 [2]	MIC-0 [3]	MIC-0 [4]	MIC-0 [5]	MIC-0 [6]	MIC-0 [7]	MIC-0 [8]	MIC-0 [9]	MIC-0 [10]	MIC-0 [11]	MIC-0 [12]	MIC values against clinically relevant Candida strains (Candida strains (A-J))	fold more active than AmB (Candida strains (A-J); anti-Candida)	fold more potent in MIC values than FLC (Candida strains (A-J); anti-Candida, except against strain J)	MIC values against Candida strains, range (Candida strains (A-J); Candida strains A-J)
CCCCCn1sc2ccccc2c1=O [Compound 3a]	0.39 µg/mL (≈ 1.76 µM)	1.56 µg/mL (≈ 7.05 µM)	0.78 µg/mL (≈ 3.52 µM)	0.78 µg/mL (≈ 3.52 µM)	0.39 µg/mL (≈ 1.76 µM)	0.78 µg/mL (≈ 3.52 µM)	1.56 µg/mL (≈ 7.05 µM)	1.56 µg/mL (≈ 7.05 µM)	0.78 µg/mL (≈ 3.52 µM)	≤0.02 µg/mL	≤0.02 µg/mL	≤0.02 µg/mL	0.78 µg/mL (≈ 3.52 µM)	1.25- to 10 fold	20- to 320 fold	–
CCCCCCn1sc2ccccc2c1=O [Compound 3b]	1.56 µg/mL (≈ 6.63 µM)	1.56 µg/mL (≈ 6.63 µM)	0.78 µg/mL (≈ 3.31 µM)	1.56 µg/mL (≈ 6.63 µM)	0.78 µg/mL (≈ 3.31 µM)	0.78 µg/mL (≈ 3.31 µM)	1.56 µg/mL (≈ 6.63 µM)	1.56 µg/mL (≈ 6.63 µM)	0.78 µg/mL (≈ 3.31 µM)	≤0.02 µg/mL	≤≤0.02 μg/mL	≤0.02 µg/mL	0.78 µg/mL (≈ 3.31 µM)	–	–	–
CC(C)(C)n1sc2ccccc2c1=O [Compound 3g]	1.56 µg/mL (≈ 7.53 µM)	1.56 µg/mL (≈ 7.53 µM)	1.56 µg/mL (≈ 7.53 µM)	1.56 µg/mL (≈ 7.53 µM)	1.56 µg/mL (≈ 7.53 µM)	3.13 µg/mL (≈ 15.1 µM)	0.78 µg/mL (≈ 3.76 µM)	1.56 µg/mL (≈ 7.53 µM)	1.56 µg/mL (≈ 7.53 µM)	0.10 µg/mL (≈ 0.482 µM)	0.10 µg/mL (≈ 0.482 µM)	0.10 µg/mL (≈ 0.482 µM)	–	–	–	0.78 to 3.13 µg/mL
